Data: publication PMC13091788 (NPJ Aging, 2026)
Like-named read-outs stand apart in the source and are kept apart here.

Tests used:
[1] = Repeated oral administration: plasma concentration and tissue distribution; assay type: in vivo, mouse; conditions: mice, 7 days
Method: In the repeated administration study, animals were treated according to the group allocations as described in the main text and corresponding to Supplementary Figure 2d. Compounds were administered orally either via drinking water or mixed feed for 7 or 28 days, and plasma, brain, heart, and skeletal muscle samples were collected at the final time point (8:00–10:00 a.m.) on the day of sacrifice (n = 4 per group). Blood was drawn from the abdominal vena cava under terminal anesthesia and plasma was separated by centrifugation using heparinized tubes. Tissue samples were homogenized with four volumes of phosphate-buffered saline. Plasma and tissue homogenate samples were precipitated with acetonitrile containing an internal standard (IS) at a volume fourfold or greater than that of the sample, and then centrifuged at 15,000 × g for 10 min at 4 °C. The resulting supernatants were analyzed by LC-MS/MS.
An LCMS-8060 instrument equipped with a Shimadzu Nexera series LC system (Shimadzu) was used. Berberrubine and IS were analyzed in multiple reaction monitoring mode under electronspray ionization conditions. The analytical column used was a CAPCELL PAK C18 MGIII (3 μm × 2.0 mm ID × 35 mm; OSAKA SODA) at 50 °C. The gradient mobile phase consisted of 0.1% formic acid in water (mobile phase A) and 0.1% formic acid in acetonitrile (mobile phase B) at a total flow rate of 1 mL/min. The initial mobile phase composition was 10% B, which was held constant for 0.5 min, increased in a linear fashion to 90% B over 1 min, then held constant for 0.8 min, and finally brought back to the initial condition of 10% B over 0.01 min and reequilibrated for 1 min. The transitions (precursor ion > product ion) of berberrubine and IS (methyl testosterone) are 322.11 > 307.1 and 303.1 > 109.1 (positive), respectively.

C2C12 myoblasts = assay: Oxygen consumption analysis of C2C12 cells (Seahorse); assay type: cell-based, mouse; conditions: C2C12, 30 μM, 24 h, vs solvent control
Method: (§1) Murine myoblast C2C12 cells were used for various cellular experiments in this study. Two different sources of C2C12 cells were used depending on the experiment: C2C12 cells obtained from RIKEN BRC (RCB0987) were used for gene expression, mtDNA quantification, and mitochondrial morphology analysis; C2C12 cells from ATCC (CRL-1772) were used for OCR analysis. Cells were cultured in Dulbecco’s Modified Eagle Medium (DMEM; Sigma-Aldrich or Nacalai Tesque), supplemented with 10% FBS and 1% penicillin–streptomycin. Cells were maintained in a humidified incubator at 37°C with 5% CO2.
To generate mMITOL-knockout C2C12 cells, CRISPR-Cas9 vectors were constructed. […]
The oxygen consumption rate (OCR) of C2C12 myoblasts and H9c2 cardiomyocytes were measured using a Seahorse XFe24 Analyzer and the Seahorse XF Cell Mito Stress Test Kit (Agilent Technologies), as well as a Seahorse XF HS Mini Analyzer and the Seahorse XFp Cell Mito Stress Test Kit (Agilent Technologies), according to the manufacturer’s protocol. […] The assay was performed at 37 °C, and OCR was measured at baseline and after sequential injections of the following compounds: oligomycin (Oligo; 1 μM), FCCP (0.5 μM), and a mixture of rotenone and antimycin A (Rot/Anti; 0.5 μM each). […] Non-mitochondrial respiration was defined as the OCR measured after the injection of rotenone and antimycin A.

PAMPA assay = assay type: in vitro ADME; conditions: 37 °C, 4 h
Method: To determine the passive membrane diffusion rates, Corning Gentest Pre-coated PAMPA Plate System was used. The acceptor plate was prepared by adding 200 μL of 0.1 M phosphate buffer (pH 4.5–8.6) supplemented with 5% DMSO to each well, and then 300 μL of 30 μM compounds in 0.1 M phosphate buffer (pH 4.5–8.6) with 5% DMSO were added to the donor wells. The acceptor plate was then placed on top of the donor plate and incubated at 37 °C for 4 h without agitation. After the incubation, the plates were separated and the solutions from each well of both the acceptor plate and the donor plate were transferred to 96-well plates and mixed with acetonitrile. The final concentrations of compounds in both donor and acceptor wells, as well as the concentrations of the initial donor solutions, were analyzed using liquid chromatography-tandem mass spectrometry (LC-MS/MS). The permeability of the compounds was calculated as described in a previous study. […] Two technical replicates were performed.

[2] = Unbound fraction in human plasma (equilibrium dialysis); assay type: in vitro ADME; conditions: pH 7.4, equilibrium dialysis 6 h, 37 °C, read-out: Plasma protein binding (fraction unbound) human (pH7.4)
Method: An equilibrium dialysis apparatus was used to determine the unbound fraction for each compound in human or mouse plasma. High Throughput Dialysis Model HTD96b and Dialysis Membrane Strips MWCO 12–14 kDa (HTDialysis) were used. Plasma was spiked with the test compound (1 μM), and 150 μL aliquots were loaded into the apparatus and dialyzed versus 150 μL of 0.1 M phosphate buffer (pH 7.4) at 37 °C for 6 h by rotation at 80 rpm. The unbound fraction was calculated as the ratio of receiver side (buffer) to donor side (plasma) concentrations. Two technical replicates were performed.

C2C12 cells = assay: Quantification of mitochondrial DNA (mtDNA/nDNA ratio); assay type: cell-based, mouse; conditions: C2C12, 10 μM
Method: as §1
To generate mMITOL-knockout C2C12 cells, CRISPR-Cas9 vectors were constructed. Single-guide RNAs (sgRNAs) targeting the mouse MITOL gene were designed using the online tool CRISPOR (http://crispor.org). The oligonucleotide pair corresponding to the mMITOL guide RNA (gRNA sequence, 5′-[…]-3′) was annealed and ligated into the PX459 vector (48139, Addgene). C2C12 cells were transfected using Lipofectamine 3000 (Thermo Fisher Scientific), and knockout clones were selected by serial dilution.
To assess mitochondrial DNA (mtDNA) content, the mtDNA/nuclear DNA (nDNA) ratio was determined by extracting DNA from C2C12 cells using the NucleoSpin Tissue Kit (Takara Bio), followed by real-time quantitative PCR analysis with specific primer sets for mtDNA (16S rRNA or ND1) and nDNA (Hexokinase 2; HK2) (Supplementary Table 2). Real-time quantitative PCR was performed using TB Green Premix Ex Taq II (Takara Bio) and a Thermal Cycler Dice Real-Time System (Takara Bio). The analysis of mtDNA/nDNA ratios was conducted using the ΔΔCt method as previously described.

[3] = donor/acceptor pH 6.4/7.4, 30 μM, read-out: Membrane permeability pH6.4/7.4
[4] = donor/acceptor pH 7.4/7.4, 30 μM, read-out: Membrane permeability pH7.4/7.4
[5] = 2 mg/mL AcA-BRB in drinking water

COc1ccc2cc3[n+](cc2c1O)CCc1cc2c(cc1-3)OCO2 [AcA-BRB, berberrubine acetic acid adduct]
plasma berberrubine concentration compared to all other groups ([1]; 2 mg/mL in drinking water): significantly higher
OCR: basal respiration, ATP synthesis-linked respiration and maximal respiration (C2C12 myoblasts): significantly increased
Papp at 4 h, 30 μM (PAMPA assay; donor/acceptor pH 4.5/4.5, 30 μM, read-out: Membrane permeability pH4.5/4.5): 0.22 ×10⁻⁶ cm/s
Papp at 4 h, 30 μM (PAMPA assay; [3]): 1.87 ×10⁻⁶ cm/s
Papp at 4 h, 30 μM (PAMPA assay; [4]): 1.8 ×10⁻⁶ cm/s
fraction unbound at 6 h, 1 μM [2]: 0.374
mitochondrial abundance (mtDNA 16S rRNA or ND1 / nuclear HK2) (C2C12 cells): significantly increased

COc1ccc2cc3n(cc-2c1=O)CCc1cc2c(cc1-3)OCO2 [Q-BRB, quinoid-type berberrubine]
OCR: basal respiration, ATP synthesis-linked respiration and maximal respiration (C2C12 myoblasts): significantly increased
Papp at 4 h, 30 μM (PAMPA assay; [3]): 1.63 ×10⁻⁶ cm/s
Papp at 4 h, 30 μM (PAMPA assay; [4]): 2.9 ×10⁻⁶ cm/s
Papp at 4 h, 30 μM (PAMPA assay; donor/acceptor pH 8.6/8.6, 30 μM, read-out: Membrane permeability pH8.6/8.6): 2.6 ×10⁻⁶ cm/s
fraction unbound at 6 h, 1 μM [2]: 0.359
mitochondrial abundance (mtDNA 16S rRNA or ND1 / nuclear HK2) (C2C12 cells): significantly increased

COc1ccc2cc3[n+](cc2c1O)CCc1cc2c(cc1-3)OCO2 [berberrubine]
berberrubine concentration in the heart compared to other tissues [1, 5]: tendency toward higher concentrations
berberrubine level in the brain [1, 5]: exceptionally low
